Measured values: PubChem BioAssay AID463204 (Broad Institute, 2010)
Activity calls are given as the source filed them.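 How the source made its calls: active means AC50 no more than ten times the top concentration tested, that is within one log above it; inconclusive means flat curve fit with activity between 30% and 70%, or invalid poor fit; inactive means AC50 beyond ten times the top tested dose.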

These compounds were tested on S. cerevisiae Mot1-301 ts growth rescue, BacTiter-Glo ATP luminescence (assay: restored Mot1-301 yeast growth at 38.5C – whole organism, S. cerevisiae, Mot1-301 ts mutant, luminescence, dose retest, SUMOylation pathway inhibitor project, confirmation (AID 463204);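 further: growth at restrictive 38.5 degrees C of Mot1-301 OY566 strain; actives raise luminescence by restoring growth of the ts mutant at high temperature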).
For `COC(=O)CSc1ccc(S(=O)(=O)N2CCCCCC2)cc1[N+](=O)[O-]`, the AC50 was > 42 µM (inactive).
`CCOc1ccc2nc(C(C)O)[nH]c2c1` (stereo not given) was tested, and the AC50 was > 42 µM (inactive).
With `CC1CCN(S(=O)(=O)c2ccc(NC(=O)c3cccs3)cc2)CC1` the AC50 was > 42 µM (inactive).
With `CCc1nnc(NC(=O)CSc2nc3c(cc2C#N)CCCC3)s1` the AC50 was > 42 µM (inactive).
`CN(C)CCN(Cc1ccc(Cl)cc1)c1ccccn1` was tested, and the AC50 was > 42 µM (inactive).
In the case of `COc1ccc(C(=O)Nc2ccccc2C(=O)NCCN2CCOCC2)cc1OC`, the AC50 is reported as > 42 µM (inactive).
With `CCOC(=O)Cn1c(C)c(Br)c(=O)c2cccc(C)c21` the AC50 was > 42 µM (inactive).
`O=C(O)c1cccc(NC(=O)c2cccc(S(=O)(=O)Nc3cccc([N+](=O)[O-])c3)c2)c1` was tested, and the AC50 was > 42 µM (inactive).
`Cn1cc(Br)c(C(=O)Nc2nccs2)n1` was tested, and the AC50 was > 42 µM (inactive).
With `COc1cccc(NC(=O)CN(C)C(=O)c2ccccc2OCc2c(C)noc2C)c1` the AC50 was > 42 µM (inactive).
In the case of `CC(C)N=C(NS(=O)(=O)NC(=O)c1ccccc1)c1ccccc1`, the AC50 is reported as > 42 µM (inactive).
`CCOc1ccc(C(=O)Nc2ccc(C(F)(F)F)n(C)c2=O)cc1` was tested, and the AC50 was > 42 µM (inactive).
For `O=C(c1ccccc1F)N1CCN=C1SCc1cccnc1`, the AC50 was > 42 µM (inactive).
With `Cc1ccc(-c2noc(C3CCCN(S(=O)(=O)c4ccc5ccccc5c4)C3)n2)o1` (stereo not given) the AC50 was > 42 µM (inactive).
In the case of `O=C(CCNS(=O)(=O)c1cccc2nsnc12)NCCC1=CCCCC1`, the AC50 is reported as > 42 µM (inactive).
Compound `Cc1cccc(OCCN2CSC(=S)N(C)C2)c1` has an AC50 of 3.7 µM.
For `COC(=O)c1c(C)n(Cc2ccc3c(c2)OCO3)c2ccc(O)cc12`, the AC50 was > 42 µM (inactive).
`Cc1nn(C(C)(C)C)c(OC(=O)c2ccc3c(c2)OCO3)c1S(=O)(=O)c1ccccc1` was tested, and the AC50 was > 42 µM (inactive).
For `Cc1cc(C#Cc2c(-c3ccccc3)n(C)c3ccccc23)ccc1F`, the AC50 was > 42 µM (inactive).
With `COc1cc(NC(=O)c2cc(Cl)ccc2Cl)ccc1-c1cc2ccccc2oc1=O` the AC50 was > 42 µM (inactive).
`OC1CN=C2CCCc3c2n(c2ccc(Cl)cc32)C1` (stereo not given) was tested, and the AC50 was > 42 µM (inactive).
In the case of `COC(=O)c1sccc1NC(=O)CC1C(=O)NCCN1C(=O)Nc1ccc(F)cc1F` (stereo not given), the AC50 is reported as > 42 µM (inactive).
`CN(C)C(=O)CSc1nc2ccc(N3C(=O)c4ccccc4C3=O)cc2s1` was tested, and the AC50 was > 42 µM (inactive).
`COCCN(C(=O)c1csnn1)C(C(=O)NC1CCCCC1)c1ccccc1` (stereo not given) was tested, and the AC50 was > 42 µM (inactive).
With `COc1ccc2cc(C(=O)Nc3ccc(Cl)cc3)sc(=O)c2c1OC` the AC50 was > 42 µM (inactive).
`O=c1[nH]c(=O)n(C2CCCO2)cc1Br` (stereo not given) was tested, and the AC50 was > 42 µM (inactive).
In the case of `CC1CC(c2ccccc2)NS(=O)(=O)O1` (stereo not given), the AC50 is reported as > 42 µM (inactive).
With `Cc1cc(-c2nnc3sc(C4CCCCC4)nn23)n[nH]1` the AC50 was > 42 µM (inactive).
With `CCOC(=O)C1ON2CCCCC2C1(O)C(F)(F)F` (stereo not given) the AC50 was > 42 µM (inactive).
With `CCOC(=O)c1ccc(CNC(=O)Cn2nnc(-c3ccc(C)cc3)n2)o1` the AC50 was > 42 µM (inactive).
In the case of `CC(=O)Cc1nsc(Nc2cccc(C)c2)n1`, the AC50 is reported as > 42 µM (inactive).
With `O=S(=O)(NCc1ccco1)c1ccc2ccccc2c1` the AC50 was > 42 µM (inactive).
In the case of `CCOC(=O)C1(Cc2cccc(F)c2)CCN(C(=O)c2cnccn2)CC1`, the AC50 is reported as > 42 µM (inactive).
In the case of `Cn1c(-c2sc3cc(C(F)(F)F)cnc3c2-c2cccs2)n[nH]c1=S`, the AC50 is reported as > 42 µM (inactive).
For `CCOC(=O)c1ccc(CNC(=O)C2CCCCC2C(=O)OCC(F)(F)F)o1` (stereo not given), the AC50 was > 42 µM (inactive).
With `Cc1nc(SCC(=O)O)n[nH]1` the AC50 was > 42 µM (inactive).
With `O=C(O)CCC(=O)N1N=C(c2c(-c3ccccc3)c3cc(Cl)ccc3[nH]c2=O)CC1c1ccco1` (stereo not given) the AC50 was > 42 µM (inactive).
In the case of `Cc1cc(C)c2cc(C)c3nnc(SCC(=O)NCc4ccc5c(c4)OCO5)n3c2c1`, the AC50 is reported as > 42 µM (inactive).
In the case of `CC(c1ccccn1)N(CCN(C)C)C(=S)Nc1cccc(F)c1` (stereo not given), the AC50 is reported as > 42 µM (inactive).
`CCN(CC)C(=O)CSc1nnc(SCc2ccc(Cl)cc2)s1` was tested, and the AC50 was > 42 µM (inactive).
In the case of `O=C(COC(=O)c1ccccc1SCC(=O)N1CCCC1)NC1CCCCC1`, the AC50 is reported as > 42 µM (inactive).
`Cc1ccc(N(C(=O)Cn2nnc3ccccc32)C(C(=O)NC2CCCCC2)c2cn(C)nc2C)cc1` (stereo not given) was tested, and the AC50 was > 21 µM (inactive).
`Cc1ccc(-c2nc(-c3cccnc3)sc2CC(=O)O)cc1` was tested, and the AC50 was > 42 µM (inactive).
`C/C(CC(=O)Nc1cccnc1)=N\NC(=O)C(C)Oc1ccc(Cl)cc1Cl` (stereo not given) was tested, and the AC50 was > 42 µM (inactive).
`O=S(=O)(NCc1ccccc1)c1ccc(S(=O)(=O)N(Cc2ccccn2)Cc2ccco2)cc1` was tested, and the AC50 was > 42 µM (inactive).
With `CCN(CC)c1nc(Nc2ccc(Cl)cc2)nc(OCC#N)n1` the AC50 was > 42 µM (inactive).
In the case of `O=C(CSc1nc(-c2ccccc2)cc(=O)[nH]1)Nc1ccc(Br)cc1`, the AC50 is reported as > 42 µM (inactive).
`O=C(COC(=O)Cc1ccsc1)NC1CCCCCC1` was tested, and the AC50 was > 42 µM (inactive).
In the case of `COc1ccc(CCC(=O)Nc2ccc3c(c2)OCO3)cc1`, the AC50 is reported as > 42 µM (inactive).
With `CCc1cc2c(=O)c(-c3nc4ccccc4[nH]3)coc2c(CN2CCCCC2)c1O` the AC50 was > 42 µM (inactive).
